According to patent US12637424B2, “Pharmaceutical salt of an arylpyrrole derivative” (SENTINEL ONCOLOGY LIMITED, priority 2020, dated 2026):

Assays:
Test in all cases: DiscoverX KinomeScreen competition binding assay (kinase selectivity panel)
[1] = molecular target: T1, panel of ninety-seven kinases (Homo sapiens, UniProt P36888); settings: FLT3; screened at 3000 nM
T1 construct: purchased DiscoverX; host or cells: E. coli (BL21-derived, T7 phage display) or HEK-293
Protocol: (§1) This has been investigated by testing atropisomer A-2 for off-target activity against a panel of ninety-seven kinases distributed across the kinome at a concentration of 3 μM using the DiscoverX KinomeScreen assay. The DiscoverX KinomeScreen assay is a site-directed competition binding assay which measures the binding affinity of a compound to a kinase, by use of a solid supported control compound which can bind or capture the kinases in solution. In the absence of a kinase-inhibitor test compound, all of the kinase will bind to the solid support. If a kinase-inhibitor test compound is added to the assay mix, the amount of kinase binding to the solid support will be reduced, the extent of reduction being dependent on the potency of the test compound as a kinase inhibitor. […] For most assays, kinase-tagged T7 phage strains were grown in parallel in 24-well blocks in an E. coli host derived from the BL21 strain. E. coli were grown to log-phase and infected with T7 phage from a frozen stock (multiplicity of infection=0.4) and incubated with shaking at 32° C. until lysis (90-150 minutes). The lysates were centrifuged (6,000×g) and filtered (0.2 μm) to remove cell debris. The remaining kinases were produced in HEK-293 cells and subsequently tagged with DNA for qPCR detection. Streptavidin-coated magnetic beads were treated with biotinylated small molecule ligands for 30 minutes at room temperature to generate affinity resins for kinase assays. The liganded beads were blocked with excess biotin and washed with blocking buffer (SeaBlock (Pierce), 1% BSA, 0.05% Tween 20, 1 mM DTT) to remove unbound ligand and to reduce non-specific phage binding. […] Test compounds were prepared as 40× stocks in 100% DMSO and directly diluted into the assay. All reactions were performed in polypropylene 384-well plates in a final volume of 0.02 ml. […] The beads were then re-suspended in elution buffer (1×PBS, 0.05% Tween 20, 0.5 μM non-biotinylated affinity ligand) and incubated at room temperature with shaking for 30 minutes. The kinase concentration in the eluates was measured by qPCR. Compounds that bind the kinase active site and directly (sterically) or indirectly (allosterically) prevent kinase binding to the immobilized ligand, will reduce the amount of kinase captured on the solid support. […] The strength of binding of the test molecule to the kinase can be expressed as the percent control (% Ctrl) The compound(s) were screened at 3000 nM concentration, and results for primary screen binding interactions are reported as ‘% Ctrl’, where lower numbers indicate stronger hits in the matrix on the following page(s). [formula] • negative control=DMSO (100% Ctrl) • positive control=control compound (0% Ctrl)

[2] = molecular target: T2, panel of ninety-seven kinases (Homo sapiens, UniProt Q16539); settings: MAPK14; screened at 3000 nM
T2 construct: purchased DiscoverX; host or cells: E. coli (BL21-derived, T7 phage display) or HEK-293
Protocol: as §1

[3] = molecular target: T3, panel of ninety-seven kinases (Homo sapiens, UniProt P24941); settings: CDK2; screened at 3000 nM
T3 construct: purchased DiscoverX; host or cells: E. coli (BL21-derived, T7 phage display) or HEK-293
Protocol: as §1

[4] = molecular target: T4, panel of ninety-seven kinases (Homo sapiens, UniProt P48736); settings: PIK3CG; screened at 3000 nM
T4 construct: purchased DiscoverX; host or cells: E. coli (BL21-derived, T7 phage display) or HEK-293
Protocol: as §1

[5] = molecular target: T5, panel of ninety-seven kinases (Homo sapiens, UniProt O15111); settings: CHUK; screened at 3000 nM
T5 construct: purchased DiscoverX; host or cells: E. coli (BL21-derived, T7 phage display) or HEK-293
Protocol: as §1

[6] = molecular target: T6, panel of ninety-seven kinases (Homo sapiens, UniProt P04049); settings: RAF1; screened at 3000 nM
T6 construct: purchased DiscoverX; host or cells: E. coli (BL21-derived, T7 phage display) or HEK-293
Protocol: as §1

[7] = molecular target: T7, panel of ninety-seven kinases (Homo sapiens, UniProt P08581); settings: MET; screened at 3000 nM
T7 construct: purchased DiscoverX; host or cells: E. coli (BL21-derived, T7 phage display) or HEK-293
Protocol: as §1

[8] = molecular target: T8, panel of ninety-seven kinases (Homo sapiens, UniProt O15530); settings: PDPK1; screened at 3000 nM
T8 construct: purchased DiscoverX; host or cells: E. coli (BL21-derived, T7 phage display) or HEK-293
Protocol: as §1

[9] = molecular target: T9, panel of ninety-seven kinases (Homo sapiens, UniProt P27361); settings: MAPK3; screened at 3000 nM
T9 construct: purchased DiscoverX; host or cells: E. coli (BL21-derived, T7 phage display) or HEK-293
Protocol: as §1

[10] = molecular target: T10, panel of ninety-seven kinases (Homo sapiens, UniProt Q86UX6); settings: STK32C; screened at 3000 nM
T10 construct: purchased DiscoverX; host or cells: E. coli (BL21-derived, T7 phage display) or HEK-293
Protocol: as §1

[11] = molecular target: T11, panel of ninety-seven kinases (Homo sapiens, UniProt P07949); settings: RET; screened at 3000 nM
T11 construct: purchased DiscoverX; host or cells: E. coli (BL21-derived, T7 phage display) or HEK-293
Protocol: as §1

[12] = molecular target: T12, panel of ninety-seven kinases (Homo sapiens, UniProt P36896); settings: ACVR1B; screened at 3000 nM
T12 construct: purchased DiscoverX; host or cells: E. coli (BL21-derived, T7 phage display) or HEK-293
Protocol: as §1

[13] = molecular target: T13, panel of ninety-seven kinases (Homo sapiens, UniProt P48730); settings: CSNK1D; screened at 3000 nM
T13 construct: purchased DiscoverX; host or cells: E. coli (BL21-derived, T7 phage display) or HEK-293
Protocol: as §1

[14] = molecular target: T14, panel of ninety-seven kinases (Homo sapiens, UniProt P50613); settings: CDK7; screened at 3000 nM
T14 construct: purchased DiscoverX; host or cells: E. coli (BL21-derived, T7 phage display) or HEK-293
Protocol: as §1

[15] = molecular target: T15, panel of ninety-seven kinases (Homo sapiens, UniProt O14920); settings: IKBKB; screened at 3000 nM
T15 construct: purchased DiscoverX; host or cells: E. coli (BL21-derived, T7 phage display) or HEK-293
Protocol: as §1

[16] = molecular target: T16, panel of ninety-seven kinases (Homo sapiens, UniProt Q00536); settings: CDK16; screened at 3000 nM
T16 construct: purchased DiscoverX; host or cells: E. coli (BL21-derived, T7 phage display) or HEK-293
Protocol: as §1

[17] = molecular target: T17, panel of ninety-seven kinases (Homo sapiens, UniProt P07333); settings: CSF1R; screened at 3000 nM
T17 construct: purchased DiscoverX; host or cells: E. coli (BL21-derived, T7 phage display) or HEK-293
Protocol: as §1

[18] = molecular target: T18, panel of ninety-seven kinases (Homo sapiens, UniProt Q05397); settings: PTK2; screened at 3000 nM
T18 construct: purchased DiscoverX; host or cells: E. coli (BL21-derived, T7 phage display) or HEK-293
Protocol: as §1

[19] = molecular target: T19, panel of ninety-seven kinases (Homo sapiens, UniProt O14965); settings: AURKA; screened at 3000 nM
T19 construct: purchased DiscoverX; host or cells: E. coli (BL21-derived, T7 phage display) or HEK-293
Protocol: as §1

[20] = molecular target: T20, panel of ninety-seven kinases (Homo sapiens, UniProt P78368); settings: CSNK1G2; screened at 3000 nM
T20 construct: purchased DiscoverX; host or cells: E. coli (BL21-derived, T7 phage display) or HEK-293
Protocol: as §1

[21] = molecular target: T21, panel of ninety-seven kinases (Homo sapiens, UniProt Q9Y6R4); settings: MAP3K4; screened at 3000 nM
T21 construct: purchased DiscoverX; host or cells: E. coli (BL21-derived, T7 phage display) or HEK-293
Protocol: as §1

[22] = molecular target: T22, panel of ninety-seven kinases (Homo sapiens, UniProt Q9BWU1); settings: CDK19; screened at 3000 nM
T22 construct: purchased DiscoverX; host or cells: E. coli (BL21-derived, T7 phage display) or HEK-293
Protocol: as §1

T20 sequence (P78368 whole entry): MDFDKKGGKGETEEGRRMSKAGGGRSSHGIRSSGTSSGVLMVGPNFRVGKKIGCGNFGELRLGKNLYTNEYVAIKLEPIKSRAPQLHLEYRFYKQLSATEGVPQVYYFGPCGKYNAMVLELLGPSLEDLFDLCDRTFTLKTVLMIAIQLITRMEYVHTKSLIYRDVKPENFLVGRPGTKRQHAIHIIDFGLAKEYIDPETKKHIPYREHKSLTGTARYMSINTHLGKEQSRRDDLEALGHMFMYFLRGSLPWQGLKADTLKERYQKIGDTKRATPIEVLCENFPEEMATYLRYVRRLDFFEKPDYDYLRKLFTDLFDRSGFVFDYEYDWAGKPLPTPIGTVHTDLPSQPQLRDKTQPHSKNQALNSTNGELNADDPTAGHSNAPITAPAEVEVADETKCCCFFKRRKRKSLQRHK
T19 sequence (O14965 whole entry): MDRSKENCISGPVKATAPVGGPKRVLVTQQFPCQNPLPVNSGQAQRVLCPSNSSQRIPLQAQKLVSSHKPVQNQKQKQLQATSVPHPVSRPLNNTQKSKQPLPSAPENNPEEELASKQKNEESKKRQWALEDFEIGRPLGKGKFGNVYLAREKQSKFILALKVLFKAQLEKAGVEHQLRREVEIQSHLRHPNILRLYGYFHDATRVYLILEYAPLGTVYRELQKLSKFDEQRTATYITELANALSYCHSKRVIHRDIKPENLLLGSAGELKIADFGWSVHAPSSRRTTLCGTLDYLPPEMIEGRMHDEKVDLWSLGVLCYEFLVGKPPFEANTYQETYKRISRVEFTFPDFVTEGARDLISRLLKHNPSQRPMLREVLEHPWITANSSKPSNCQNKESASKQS
T18 sequence (Q05397 whole entry): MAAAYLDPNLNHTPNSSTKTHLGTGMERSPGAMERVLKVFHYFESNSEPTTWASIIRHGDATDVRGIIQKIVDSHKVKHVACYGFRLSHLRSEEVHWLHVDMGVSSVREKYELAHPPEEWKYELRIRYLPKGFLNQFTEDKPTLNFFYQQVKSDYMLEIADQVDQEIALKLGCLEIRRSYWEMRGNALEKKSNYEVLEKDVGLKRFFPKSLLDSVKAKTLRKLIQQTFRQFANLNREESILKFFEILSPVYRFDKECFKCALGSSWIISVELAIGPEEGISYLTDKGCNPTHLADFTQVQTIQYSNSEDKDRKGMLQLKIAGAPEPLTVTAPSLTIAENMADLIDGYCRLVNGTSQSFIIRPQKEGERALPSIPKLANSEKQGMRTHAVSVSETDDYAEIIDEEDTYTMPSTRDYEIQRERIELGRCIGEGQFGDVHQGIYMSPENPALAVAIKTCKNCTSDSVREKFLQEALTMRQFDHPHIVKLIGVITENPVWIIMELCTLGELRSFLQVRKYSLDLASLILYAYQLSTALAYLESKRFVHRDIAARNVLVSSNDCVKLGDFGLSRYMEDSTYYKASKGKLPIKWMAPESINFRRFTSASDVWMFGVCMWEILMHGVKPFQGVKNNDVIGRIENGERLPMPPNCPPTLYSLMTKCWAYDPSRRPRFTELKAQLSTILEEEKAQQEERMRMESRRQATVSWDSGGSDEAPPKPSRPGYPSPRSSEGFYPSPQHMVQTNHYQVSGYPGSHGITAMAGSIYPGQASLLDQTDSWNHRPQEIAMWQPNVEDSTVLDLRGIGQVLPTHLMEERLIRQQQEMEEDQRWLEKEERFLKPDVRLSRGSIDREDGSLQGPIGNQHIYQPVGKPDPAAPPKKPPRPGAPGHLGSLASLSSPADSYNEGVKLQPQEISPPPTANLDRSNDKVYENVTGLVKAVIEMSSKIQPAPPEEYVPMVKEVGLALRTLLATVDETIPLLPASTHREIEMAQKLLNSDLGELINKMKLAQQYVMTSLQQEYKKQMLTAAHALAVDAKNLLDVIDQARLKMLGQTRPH
T1 sequence (P36888 27-993): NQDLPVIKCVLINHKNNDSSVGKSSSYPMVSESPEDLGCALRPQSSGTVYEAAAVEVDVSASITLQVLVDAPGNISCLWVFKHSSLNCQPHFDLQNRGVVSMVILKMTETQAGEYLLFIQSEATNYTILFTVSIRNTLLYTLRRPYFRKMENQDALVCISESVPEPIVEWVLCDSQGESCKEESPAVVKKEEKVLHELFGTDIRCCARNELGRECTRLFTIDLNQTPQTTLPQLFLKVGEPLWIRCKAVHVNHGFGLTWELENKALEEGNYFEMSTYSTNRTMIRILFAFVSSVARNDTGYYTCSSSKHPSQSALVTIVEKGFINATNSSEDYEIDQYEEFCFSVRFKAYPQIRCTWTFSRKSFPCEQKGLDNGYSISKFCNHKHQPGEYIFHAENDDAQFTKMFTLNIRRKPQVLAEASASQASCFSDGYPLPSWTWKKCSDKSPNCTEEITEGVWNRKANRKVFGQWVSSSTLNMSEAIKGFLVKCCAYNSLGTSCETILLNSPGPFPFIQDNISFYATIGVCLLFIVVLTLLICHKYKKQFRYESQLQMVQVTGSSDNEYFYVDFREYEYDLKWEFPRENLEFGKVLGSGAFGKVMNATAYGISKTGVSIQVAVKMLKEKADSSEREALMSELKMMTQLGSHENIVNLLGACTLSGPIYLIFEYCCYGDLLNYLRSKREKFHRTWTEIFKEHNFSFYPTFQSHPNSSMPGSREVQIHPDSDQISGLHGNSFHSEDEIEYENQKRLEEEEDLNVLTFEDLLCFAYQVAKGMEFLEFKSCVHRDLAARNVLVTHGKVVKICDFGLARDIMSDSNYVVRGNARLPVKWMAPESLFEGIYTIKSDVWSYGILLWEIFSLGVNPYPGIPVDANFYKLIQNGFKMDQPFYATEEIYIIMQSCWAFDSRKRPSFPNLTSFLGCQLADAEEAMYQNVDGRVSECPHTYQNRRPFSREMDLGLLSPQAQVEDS
T14 sequence (P50613 whole entry): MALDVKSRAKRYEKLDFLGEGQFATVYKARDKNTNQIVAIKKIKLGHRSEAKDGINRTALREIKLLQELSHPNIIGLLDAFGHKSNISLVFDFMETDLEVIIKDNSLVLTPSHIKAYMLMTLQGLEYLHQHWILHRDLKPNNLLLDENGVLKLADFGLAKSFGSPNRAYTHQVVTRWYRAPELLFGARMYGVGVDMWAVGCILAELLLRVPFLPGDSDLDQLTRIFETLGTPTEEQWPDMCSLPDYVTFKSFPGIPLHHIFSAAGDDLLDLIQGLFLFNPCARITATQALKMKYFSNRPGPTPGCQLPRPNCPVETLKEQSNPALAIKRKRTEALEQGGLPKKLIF
T5 sequence (O15111 whole entry): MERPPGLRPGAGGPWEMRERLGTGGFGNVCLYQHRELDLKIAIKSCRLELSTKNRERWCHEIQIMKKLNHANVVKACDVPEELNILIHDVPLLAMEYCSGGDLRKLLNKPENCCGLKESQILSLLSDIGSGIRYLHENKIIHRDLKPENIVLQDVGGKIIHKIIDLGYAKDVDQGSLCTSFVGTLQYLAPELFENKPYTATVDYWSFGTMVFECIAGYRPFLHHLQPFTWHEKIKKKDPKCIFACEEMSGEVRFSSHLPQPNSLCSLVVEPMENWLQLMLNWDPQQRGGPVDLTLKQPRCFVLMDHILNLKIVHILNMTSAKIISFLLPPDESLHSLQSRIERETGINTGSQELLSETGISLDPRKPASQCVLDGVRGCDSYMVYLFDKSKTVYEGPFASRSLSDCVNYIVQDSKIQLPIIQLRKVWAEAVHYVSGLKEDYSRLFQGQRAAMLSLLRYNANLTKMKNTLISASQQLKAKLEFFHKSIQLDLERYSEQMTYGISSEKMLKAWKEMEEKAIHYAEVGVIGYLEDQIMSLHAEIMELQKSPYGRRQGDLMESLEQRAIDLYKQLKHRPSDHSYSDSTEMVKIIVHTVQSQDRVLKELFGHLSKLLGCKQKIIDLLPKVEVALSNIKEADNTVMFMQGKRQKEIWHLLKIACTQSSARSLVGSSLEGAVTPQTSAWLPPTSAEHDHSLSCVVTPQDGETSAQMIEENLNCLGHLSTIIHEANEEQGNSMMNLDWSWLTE
T22 sequence (Q9BWU1 whole entry): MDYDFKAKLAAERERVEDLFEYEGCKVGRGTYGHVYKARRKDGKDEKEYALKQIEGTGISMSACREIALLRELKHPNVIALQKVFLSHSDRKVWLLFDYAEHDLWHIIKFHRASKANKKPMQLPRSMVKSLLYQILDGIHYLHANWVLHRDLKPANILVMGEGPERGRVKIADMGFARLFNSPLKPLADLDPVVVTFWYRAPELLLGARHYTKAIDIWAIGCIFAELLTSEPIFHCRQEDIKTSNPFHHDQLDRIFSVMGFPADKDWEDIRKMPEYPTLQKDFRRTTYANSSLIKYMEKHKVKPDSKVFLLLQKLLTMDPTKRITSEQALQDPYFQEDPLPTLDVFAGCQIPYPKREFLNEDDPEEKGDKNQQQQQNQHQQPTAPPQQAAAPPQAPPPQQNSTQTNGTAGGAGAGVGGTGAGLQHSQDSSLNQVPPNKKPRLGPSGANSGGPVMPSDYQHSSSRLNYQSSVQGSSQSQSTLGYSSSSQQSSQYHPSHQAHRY
T10 sequence (Q86UX6 whole entry): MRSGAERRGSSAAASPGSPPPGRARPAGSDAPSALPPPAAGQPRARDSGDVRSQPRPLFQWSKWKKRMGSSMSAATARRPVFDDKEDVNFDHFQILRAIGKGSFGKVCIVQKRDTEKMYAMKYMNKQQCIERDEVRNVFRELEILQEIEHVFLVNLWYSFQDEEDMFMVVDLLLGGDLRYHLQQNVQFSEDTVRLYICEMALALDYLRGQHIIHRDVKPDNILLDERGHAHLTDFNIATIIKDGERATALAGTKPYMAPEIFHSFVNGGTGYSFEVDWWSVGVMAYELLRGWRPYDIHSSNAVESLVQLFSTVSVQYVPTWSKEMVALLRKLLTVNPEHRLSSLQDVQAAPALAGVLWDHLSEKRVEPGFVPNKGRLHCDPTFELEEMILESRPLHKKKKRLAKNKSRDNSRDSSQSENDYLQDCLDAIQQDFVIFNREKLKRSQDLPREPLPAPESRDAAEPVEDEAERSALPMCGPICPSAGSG

Compound: CN(C)CCNC(=O)c1ccc(-c2ccc(-c3ccc(Cl)cc3)n2-c2ccccc2C(F)(F)F)cc1 (single isomer, unassigned) [Atropisomer A-2]
- % Ctrl @ 3 μM [1]: 100 % Ctrl
- % Ctrl @ 3 μM [2]: 100 % Ctrl
- % Ctrl @ 3 μM [3]: 94 % Ctrl
- % Ctrl @ 3 μM [4]: 100 % Ctrl
- % Ctrl @ 3 μM [5]: 100 % Ctrl
- % Ctrl @ 3 μM [6]: 92 % Ctrl
- % Ctrl @ 3 μM [7]: 100 % Ctrl
- % Ctrl @ 3 μM [8]: 96 % Ctrl
- % Ctrl @ 3 μM [9]: 99 % Ctrl
- % Ctrl @ 3 μM [10]: 100 % Ctrl
- % Ctrl @ 3 μM [11]: 95 % Ctrl
- % Ctrl @ 3 μM [12]: 96 % Ctrl
- % Ctrl @ 3 μM [13]: 91 % Ctrl
- % Ctrl @ 3 μM [14]: 100 % Ctrl
- % Ctrl @ 3 μM [15]: 96 % Ctrl
- % Ctrl @ 3 μM [16]: 100 % Ctrl
- % Ctrl @ 3 μM [17]: 100 % Ctrl
- % Ctrl @ 3 μM [18]: 98 % Ctrl
- % Ctrl @ 3 μM [19]: 98 % Ctrl
- % Ctrl @ 3 μM [20]: 100 % Ctrl
- % Ctrl @ 3 μM [21]: 93 % Ctrl
- % Ctrl @ 3 μM [22]: 81 % Ctrl
